Key:
[1] = test system: S6K1
Description: Until now, the function of PLD2 in nutrient signaling has not been proposed. To this end, the importance of PLD2 in nutrient signaling was tested. […] PLD2^wt was transfected and allowed to express for 24 hr.

[2] = test system: mTOR-raptor interaction; assay: Co-IP analysis of the mTOR-raptor interaction; format: cell-based, monkey; conditions: COS7 cells
[3] = test system: phosphorylation of S6K1; assay: Mitogen-dependent phosphorylation of S6K1 in siRNA-transfected COS7 cells; format: cell-based, monkey; conditions: siRNA knockdown, 20% BCS
Description: The indicated siRNAs were transfected into COS7 cells, and 36 hrs later, cells were deprived of serum for 24 hrs. 20% of BCS was then treated and the resulting lysates were subjected to SDS-PAGE.

[4] = test system: phosphorylations of S6K1 and 4EBP1; assay: Phosphorylation of S6K1 and 4EBP1 after isozyme-specific PLD siRNA knockdown (western blot); format: cell-based, human; monkey
From the text: Pairs of 21-nucleotide sense and antisense RNA oligomers were synthesized and annealed by Dharmacon Research, Inc. (Lafayette, Colo.). The oligonucleotides used for PLD2 were: sense, 5′-AAGAGGUGGCUGGUGGUGAAG-3′ (SEQ ID NO: 9) and antisense, 5′-CUUCACCACCAGCCACCUCUU-3′ (SEQ ID NO: 10), which correspond to human PLD2 coding nucleotides 703-723. The oligonucleotides used for PLD1 were: sense, 5′-AAGGUGGGACGACAAUGAGCA-3′ (SEQ ID NO: 11), and antisense, 5′-UGCUCAUUGUCGUCCCACCUU-3′ (SEQ ID NO: 12), which correspond to human PLD1a coding nucleotides 1455-1475. All siRNA sequences were subjected to BLAST in the NCBI database and complete matches were only found for PLD2 sequences. Luciferase GL2 duplex was purchased from Dharmacon Research, Inc. and was used as a negative control. For add-back experiment for PLD2 silencing, three residues of human PLD2 cDNA (nucleotides 703-723 of PLD2; […]; SEQ ID NO: 13) are substituted to […] for addback mutants of PLD2^wt (Kim, J. H., Kim, J. H., Ohba, M., Suh, P. G., Ryu, S. H. Mol. Cell. Biol. 25 (2005) 3194, which is hereby incorporated by reference). This mutation is silencing mutations. This gene is subcloned into mammalian expression vector pcDNA3.1 (Invitrogen) and digested with restriction enzymes KpnI and XbaI. These mutations are confirmed through nucleotide sequence analysis. […]

[5] = test system: interaction between PLD2 and mTOR; assay: Co-IP with anti-mTOR antibody of PLD2 and mTOR complex; format: cell-based, human; monkey
Description: (§1) After harvesting COS7 cells, total extracts were prepared by brief sonication in ice-cold lysis buffer (40 mM HEPES pH7.5, 120 mM NaCl, 1 mM EDTA, 10 mM pyrophosphate, 10 mM glycerophosphate, 50 mM NaF, 1.5 mM Na3VO4, 0.5% CHAPS, 1 mM PMSF, protease inhibitor cocktails). Clarified extracts were mixed with 2 μg of the respective antibodies. Then protein A-Sepharose beads were added to isolate the antibody complex. After four washings with lysis buffer, the final immunoprecipitates were washed once with wash buffer (50 mM HEPES pH7.5, 150 mM NaCl), and then subjected to SDS-PAGE using Hyperfilm (Amersham Pharmacia Biotech), nitrocellulose membranes (Watmann), Power supply (Amersham Pharmacia Biotech), Electrophoretic Transfer unit (Hoefer Scientific Instruments), and ECL™ (Amersham Pharmacia Biotech).

[6] = test system: binding between PLD2 and raptor; assay: Co-IP of HA-raptor/PLD2 in HEK293 cells after leucine treatment; format: cell-based, human; conditions: HA-raptorwt/PLD2wt transfected HEK293 cells; leucine treatment after leucine deprivation
Description: as §1
Either HA-raptor^wt/PLD2^wt was transfected into HEK293 cells, and the cells were subjected to leucine deprivation. Co-IP after leucine treatment was followed by Western blot analysis. Importantly, the interaction between Rheb and PLD2 was also regulated by nutrient levels such that this interaction was stabilized under high nutrient conditions and weakened under low nutrient conditions, which allowed a nutrient-dependent mTOR complex composed of mTOR, raptor, PLD2, and Rheb to be identified.

[7] = target: T1, PLD2 (Homo sapiens, UniProt O14939); assay: In vivo PLD assay (PBt formation) in response to nutrient levels; format: cell-based; conditions: PLD2wt transfected cells; leucine-free vs leucine-added media; 0.4% 1-butanol
T1 construct: showing a schematic view of PLD2 N-terminal deleted fragments versus whole PLD2; expressed in transfected cells
Description: In vivo PLD activity was assayed by measuring the formation of phosphatidyl-butanol as described in “Lee, J. S., Kim, J. H., Jang, I. H., Kim, H. S., Han, J. M., Kazlauskas, A., Yagaisawa, H., Suh, P. G., Ryu, S. H. J. Cell Sci. 118 (2005) 4405,” which is hereby incorporated by reference. In brief, cells were loaded with [^3H]myristic acid (2 μCi/ml) for 8 hrs and then washed twice with DMEM. Labeled cells were incubated with 0.4% butanol for 10 min to measure basal PLD activity. Total lipids were extracted with 1.2 ml of methanol:1 M NaCl:chloroform (1:1:1 by volume) and then separated by thin-layer chromatography on silica gel plates. The amount of [^3H]phosphatidyl-butanol formed was expressed as a percentage of total [^3H]lipid to account for cell labeling efficiency differences.

[8] = test system: S6K1 phosphorylation; assay: Exogenous PA rescue of mTOR signaling in PLD knocked-down cells (SDS-PAGE/western blot); format: cell-based, human; monkey
Description: Next, another experiment was conducted to test whether exogenous PA can rescue mTOR signal abrogation in PLD2-knocked-down cells. HEK293 and COS7 cells were transfected with the indicated siRNAs using lipofectamine. After 36 hrs, cells were deprived of serum for 24 hrs. 100 μM of C-6 PA solubilized in DW was then treated for 30 min. Resulting lysates were subject to SDS-PAGE.
The inventor reasoned that if the role of PLD2 in mTOR activation is solely that of PA generation, then the exogenous addition of PA should completely rescue mTOR signaling despite PLD2 expression.

T1 sequence (O14939 whole entry R172C/T577I, the tested form may be a part): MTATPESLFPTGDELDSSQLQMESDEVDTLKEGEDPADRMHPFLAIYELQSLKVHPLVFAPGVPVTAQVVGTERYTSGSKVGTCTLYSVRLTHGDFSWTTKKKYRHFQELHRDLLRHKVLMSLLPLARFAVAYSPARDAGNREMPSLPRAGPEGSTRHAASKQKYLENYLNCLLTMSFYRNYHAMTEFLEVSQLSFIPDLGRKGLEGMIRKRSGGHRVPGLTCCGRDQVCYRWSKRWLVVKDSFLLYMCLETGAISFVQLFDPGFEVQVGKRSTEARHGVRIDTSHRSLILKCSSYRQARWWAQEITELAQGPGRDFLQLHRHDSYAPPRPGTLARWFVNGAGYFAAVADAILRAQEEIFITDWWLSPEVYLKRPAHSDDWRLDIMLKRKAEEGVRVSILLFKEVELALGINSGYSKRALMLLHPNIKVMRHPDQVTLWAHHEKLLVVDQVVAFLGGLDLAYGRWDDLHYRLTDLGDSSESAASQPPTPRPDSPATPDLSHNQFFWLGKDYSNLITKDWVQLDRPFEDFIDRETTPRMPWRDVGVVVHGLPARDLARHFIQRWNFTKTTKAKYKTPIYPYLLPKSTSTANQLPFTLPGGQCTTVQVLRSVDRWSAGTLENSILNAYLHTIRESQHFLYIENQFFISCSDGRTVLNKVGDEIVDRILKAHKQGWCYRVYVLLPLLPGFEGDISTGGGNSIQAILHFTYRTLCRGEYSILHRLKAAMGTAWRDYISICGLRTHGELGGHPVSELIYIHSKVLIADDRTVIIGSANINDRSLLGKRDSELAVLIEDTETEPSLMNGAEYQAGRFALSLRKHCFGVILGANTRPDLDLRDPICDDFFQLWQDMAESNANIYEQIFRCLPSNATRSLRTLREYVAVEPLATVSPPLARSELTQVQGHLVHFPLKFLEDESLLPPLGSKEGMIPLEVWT

Molecule: 1-butanol
- stimulatory effect of leucine on S6K1 [1]: significantly reduced
- modulation of the mTOR-raptor interaction [2]: neither reducing PA generation with 1-butanol nor adding PA modulates

Molecule: PLD2 siRNA: 21-nt siRNA duplex SEQ ID NO: 9/10, human PLD2 coding nucleotides 703-723 (chain 1 AAGAGGUGGCUGGUGGUGAAG; chain 2 CUUCACCACCAGCCACCUCUU; RNA, backbone not given here)
- mitogen-dependent phosphorylation of S6K1 [3]: profoundly reduced
- phosphorylations of S6K1 and 4EBP1 ([4]; siRNA knockdown, HEK293, OVCAR-3 and COS7 cells, serum-deprived 24 hrs, compared with PLD1 knockdown): dramatically reduced

Molecule: CC(C)C[C@H](N)C(=O)O [leucine]
- interaction between endogenous PLD2 and endogenous mTOR complex ([5]; leucine treatment in leucine-deprived COS7 and HEK293 cells): increased
- binding between PLD2 and raptor [6]: enhanced binding
- PLD2 activity (PBt formation) [7]: reversibly regulated

Molecule: PLD1 siRNA: 21-nt siRNA duplex SEQ ID NO: 11/12, human PLD1a coding nucleotides 1455-1475 (chain 1 AAGGUGGGACGACAAUGAGCA; chain 2 UGCUCAUUGUCGUCCCACCUU; RNA, backbone not given here)
- mitogen-dependent phosphorylation of S6K1 [3]: only a modest effect
- silencing effect on mTOR signaling ([4]; siRNA silencing): modest

Molecule: CO[C@H]1C[C@@H]2CC[C@@H](C)[C@@](O)(O2)C(=O)C(=O)N2CCCC[C@H]2C(=O)O[C@H]([C@H](C)C[C@@H]2CC[C@@H](O)[C@H](OC)C2)CC(=O)[C@H](C)/C=C(\C)[C@@H](O)[C@@H](OC)C(=O)[C@H](C)C[C@H](C)/C=C/C=C/C=C/1C [rapamycin]
- effect on the interaction between PLD2 and mTOR ([5]; mTOR inhibition by rapamycin): no effect

Molecule: CCCCCC(=O)OC[C@H](COP(=O)(O)O)OC(=O)CCCCC [PA, C-6 phosphatidic acid]
- rescue of silencing effect of PLD1 on mTOR signaling ([8]; PLD1 silencing, PA treatment): completely rescued
- S6K1 phosphorylation triggered by exogenous PA ([8]; PLD2-knocked-down HEK293 and COS7 cells, 100 μM C-6 PA, 30 min): could not trigger S6K1 phosphorylation
- rescue of PLD2 effect on mTOR signaling ([8]; PLD2 silencing, exogenous PA treatment): not rescued
- modulation of the mTOR-raptor interaction [2]: neither reducing PA generation with 1-butanol nor adding PA modulates
